Source: US20060276340A1, “HERBICIDE COMPOSITION COMPRISING PYRIBAMBENZ-PROPYL OR PYRIBAMBENZ-ISOPROPYL” (Zhejiang Chem-Tech Group Co., Ltd., priority 2003, published 2006)
“Also recorded” adds a separate entry of the source.

Columns and labels:
Assay type in all cases: in vivo
Alopecurus aequalis [1] = assay: greenhouse pot test, pre-emergence treatment; details: ALOAE
Method: (§1) The test soil is a formulated sandy loam soil. 9.5 centimeter diameter pots are used for herbicidal activity test.
(§2) The soil in the pot for the pre-emergence test was sprayed one day after planting. The preparation liquid for the treatment prepared by mixing individual single-herbicides was diluted with water to the desired dosage.
(§3) The treated pots stood for one day, then were placed in a greenhouse and watered regularly. The herbicidal activities of the compositions were evaluated by visual examination after incubating for 14 to 21 days.
(§4) The herbicidal activities of the compositions were evaluated by plant symptoms such as stunting, deformity, chlorosis, and whitening. 0 represents that the compositions have no herbicidal effect or have safety to crops. 100 represents that the weeds or crops were completely killed.

Cerastium arvense [2] = assay: greenhouse pot test, pre-emergence treatment; details: CERAR
Method: as §1, §2, §3, §4

Galium aparine [3] = assay: greenhouse pot test, pre-emergence treatment; details: GALAP
Method: as §1, §2, §3, §4

Polypogon fugax [4] = assay: greenhouse pot test, pre-emergence treatment; details: POLFU
Method: as §1, §2, §3, §4

Alopecurus aequalis [5] = assay: greenhouse pot test, post-emergence treatment; details: ALOAE 3 leaves
Method: as §1
(§5) The pots for post-emergence treatment are placed into a greenhouse and incubated for 7 to 9 days, and then subjected to leave treatment by spraying. The preparation liquid for the treatment prepared by mixing individual single-herbicides was diluted with water to the desired dosage.
as §3, §4

Cerastium arvense [6] = assay: greenhouse pot test, post-emergence treatment; details: CERAR 6 leaves
Method: as §1, §5, §3, §4

Galium aparine [7] = assay: greenhouse pot test, post-emergence treatment
Method: as §1, §5, §3, §4

Polypogon fugax [8] = assay: greenhouse pot test, post-emergence treatment; details: POLFU 4˜4.5 leaves
Method: as §1, §5, §3, §4

Beckmannia syzigachne [9] = assay: greenhouse pot test, post-emergence early stage treatment; details: BECSY 2˜3 leaves
Method: as §1, §5, §3, §4

Cerastium arvense [10] = assay: as above
Method: as §1, §5, §3, §4

Galium aparine [11] = assay: as above
Method: as §1, §5, §3, §4

Poa annua [12] = assay: as above
Method: as §1, §5, §3, §4

weeds in rape field = assay: weed control in rape field, descriptive statements
Alopecurus aequalis [13] = assay: greenhouse pot test, Tables 1-2
Method: as §1, §2, §5, §3, §4

Beckmannia syzigachne [14] = assay: greenhouse pot test, Tables 1-2; details: BECSY 2 leaves
Method: as §1, §2, §5, §3, §4

Digitrria sanguinalis = assay: greenhouse pot test, Tables 1-2; details: DIGSA 3 leaves
Method: as §1, §2, §5, §3, §4

Poa annua [15] = assay: greenhouse pot test, Tables 1-2; details: POAAN 3 leaves
Method: as §1, §2, §5, §3, §4

Polypogon fugax [16] = assay: greenhouse pot test, Tables 1-2; details: POLFU 3-4 leaves
Method: as §1, §2, §5, §3, §4

Alopercurus japonicus [17] = assay: greenhouse pot test, post-emergence treatment; details: ALOJA
Method: as §1, §5, §3, §4

Poa annua [18] = assay: greenhouse pot test, post-emergence treatment; details: POAAN
Method: as §1, §5, §3, §4

Veronica didyma = assay: greenhouse pot test, post-emergence treatment; details: VERDI
Method: as §1, §5, §3, §4

Alopercurus japonicus [19] = assay: greenhouse pot test, post-emergence early stage treatment; details: ALOJA
Method: as §1, §5, §3, §4

rape = assay: safety to crops
Method: The herbicidal activities of the compositions were evaluated by plant symptoms such as stunting, deformity, chlorosis, and whitening. 0 represents that the compositions have no herbicidal effect or have safety to crops. 100 represents that the weeds or crops were completely killed. [table]

## CCOc1nc(NC)nc(NC(=O)NS(=O)(=O)c2ccccc2C(=O)O)n1 [ethametsulfuron]
Alopecurus aequalis [1]; 6 g/ha
  visual evaluation of weed effects: 80%
Alopecurus aequalis [1]; 7.5 g/ha
  visual evaluation of weed effects: 90%
Alopecurus aequalis [1]; 9 g/ha
  visual evaluation of weed effects: 95%
Cerastium arvense [2]; 6 g/ha
  visual evaluation of weed effects: 85%
Cerastium arvense [2]; 7.5 g/ha
  visual evaluation of weed effects: 90%
Cerastium arvense [2]; 9 g/ha
  visual evaluation of weed effects: 95%
Galium aparine [3]; 6 g/ha
  visual evaluation of weed effects: 10%
Galium aparine [3]; 7.5 g/ha
  visual evaluation of weed effects: 40%
Galium aparine [3]; 9 g/ha
  visual evaluation of weed effects: 70%
Polypogon fugax [4]; 6 g/ha
  visual evaluation of weed effects: 60%
Polypogon fugax [4]; 7.5 g/ha
  visual evaluation of weed effects: 70%
Polypogon fugax [4]; 9 g/ha
  visual evaluation of weed effects: 75%
Alopecurus aequalis [5]; 6 g/ha
  visual evaluation of weed effects: 90%
Alopecurus aequalis [5]; 7.5 g/ha
  visual evaluation of weed effects: 90%
Alopecurus aequalis [5]; 9 g/ha
  visual evaluation of weed effects: 90%
Cerastium arvense [6]; 6 g/ha
  visual evaluation of weed effects: 90%
Cerastium arvense [6]; 7.5 g/ha
  visual evaluation of weed effects: 90%
Cerastium arvense [6]; 9 g/ha
  visual evaluation of weed effects: 90%
Galium aparine [7]; GALAP 7˜8 leaves, 6 g/ha
  visual evaluation of weed effects: 85%
Galium aparine [7]; GALAP 7˜8 leaves, 7.5 g/ha
  visual evaluation of weed effects: 90%
Galium aparine [7]; GALAP 7˜8 leaves, 9 g/ha
  visual evaluation of weed effects: 90%
Polypogon fugax [8]; 6 g/ha
  visual evaluation of weed effects: 60%
Polypogon fugax [8]; 7.5 g/ha
  visual evaluation of weed effects: 60%
Polypogon fugax [8]; 9 g/ha
  visual evaluation of weed effects: 70%
Beckmannia syzigachne [9]; ethametsulfuron 6 g/ha
  visual evaluation of weed effects: 40%
Beckmannia syzigachne [9]; ethametsulfuron 9 g/ha
  visual evaluation of weed effects: 40%
Cerastium arvense [10]; CERAR 3˜4 leaves, ethametsulfuron 6 g/ha
  visual evaluation of weed effects: 90%
Cerastium arvense [10]; CERAR 3˜4 leaves, ethametsulfuron 9 g/ha
  visual evaluation of weed effects: 90%
Galium aparine [11]; GALAP 7˜8 leaves, ethametsulfuron 6 g/ha
  visual evaluation of weed effects: 90%
Galium aparine [11]; GALAP 7˜8 leaves, ethametsulfuron 9 g/ha
  visual evaluation of weed effects: 90%
Poa annua [12]; POAAN 2˜3 leaves, ethametsulfuron 6 g/ha
  visual evaluation of weed effects: 70%
Poa annua [12]; POAAN 2˜3 leaves, ethametsulfuron 9 g/ha
  visual evaluation of weed effects: 80%
Weeds in rape field; grass weeds
  weed control: rather moderate control
Weeds in rape field; most of broadleaf weeds
  weed control: remarkable control

## CCCOC(=O)c1ccc(NCc2ccccc2Oc2nc(OC)cc(OC)n2)cc1 [Pyribambenz-propyl, propyl 4-({2-[(4,6-dimethoxypyrimidin-2-yl)oxy]benzyl}amino)benzoate]
Alopecurus aequalis [13]; ALOAE 0 leaf, 30 g/ha
  visual evaluation of weed effects: 90%
Alopecurus aequalis [13]; ALOAE 0 leaf, 45 g/ha
  visual evaluation of weed effects: 90%
Alopecurus aequalis [13]; ALOAE 3 leaves, 30 g/ha
  visual evaluation of weed effects: 100%
Alopecurus aequalis [13]; ALOAE 3 leaves, 45 g/ha
  visual evaluation of weed effects: 100%
Beckmannia syzigachne [14]; 30 g/ha
  visual evaluation of weed effects: 0%
Beckmannia syzigachne [14]; 45 g/ha
  visual evaluation of weed effects: 0%
Digitrria sanguinalis; 30 g/ha
  visual evaluation of weed effects: 60%
Digitrria sanguinalis; 45 g/ha
  visual evaluation of weed effects: 80%
Poa annua [15]; 30 g/ha
  visual evaluation of weed effects: 20%
Poa annua [15]; 45 g/ha
  visual evaluation of weed effects: 30%
Polypogon fugax [16]; 30 g/ha
  visual evaluation of weed effects: 70%
Polypogon fugax [16]; 45 g/ha
  visual evaluation of weed effects: 80%
Alopecurus aequalis [1]; 30 g/ha
  visual evaluation of weed effects: 95%
Alopecurus aequalis [1]; 45 g/ha
  visual evaluation of weed effects: 95%
Cerastium arvense [2]; 30 g/ha
  visual evaluation of weed effects: 70%
Cerastium arvense [2]; 45 g/ha
  visual evaluation of weed effects: 80%
Galium aparine [3]; 30 g/ha
  visual evaluation of weed effects: 0%
Galium aparine [3]; 45 g/ha
  visual evaluation of weed effects: 40%
Polypogon fugax [4]; 30 g/ha
  visual evaluation of weed effects: 60%
Polypogon fugax [4]; 45 g/ha
  visual evaluation of weed effects: 80%
Alopercurus japonicus [17]; 30 g/ha
  visual evaluation of weed effects: 85%
Alopercurus japonicus [17]; 45 g/ha
  visual evaluation of weed effects: 90%
Galium aparine [7]; GALAP, 30 g/ha
  visual evaluation of weed effects: 20%
Galium aparine [7]; GALAP, 45 g/ha
  visual evaluation of weed effects: 20%
Poa annua [18]; 30 g/ha
  visual evaluation of weed effects: 85%
Poa annua [18]; 45 g/ha
  visual evaluation of weed effects: 90%
Veronica didyma; 30 g/ha
  visual evaluation of weed effects: 20%
Veronica didyma; 45 g/ha
  visual evaluation of weed effects: 30%
Alopercurus japonicus [19]; 30 g/ha
  visual evaluation of weed effects: 90%
Alopercurus japonicus [19]; 45 g/ha
  visual evaluation of weed effects: 90%
Beckmannia syzigachne [9]; 30 g/ha
  visual evaluation of weed effects: 50%
Beckmannia syzigachne [9]; 45 g/ha
  visual evaluation of weed effects: 70%
Cerastium arvense [10]; CERAR 3˜4 leaves, 30 g/ha
  visual evaluation of weed effects: 40%
Cerastium arvense [10]; CERAR 3˜4 leaves, 45 g/ha
  visual evaluation of weed effects: 50%
Cerastium arvense [10]; CERAR, 30 g/ha
  visual evaluation of weed effects: 80%
Cerastium arvense [10]; CERAR, 45 g/ha
  visual evaluation of weed effects: 85%
Galium aparine [11]; GALAP 7˜8 leaves, 30 g/ha
  visual evaluation of weed effects: 0%
Galium aparine [11]; GALAP 7˜8 leaves, 45 g/ha
  visual evaluation of weed effects: 30%
Galium aparine [11]; GALAP, 30 g/ha
  visual evaluation of weed effects: 20%
Galium aparine [11]; GALAP, 45 g/ha
  visual evaluation of weed effects: 20%
Poa annua [12]; POAAN 2˜3 leaves, 30 g/ha
  visual evaluation of weed effects: 85%
Poa annua [12]; POAAN 2˜3 leaves, 45 g/ha
  visual evaluation of weed effects: 95%
Poa annua [12]; POAAN, 30 g/ha
  visual evaluation of weed effects: 95%
Poa annua [12]; POAAN, 45 g/ha
  visual evaluation of weed effects: 98%
Weeds in rape field; Alopecurus aequalis, Alopecurus japonicus, Stellaria aquatica, Stallaria media and Atellaria alsine
  weed control: high-effectively control; also recorded: effective weed control
Weeds in rape field; second important weeds in rape field: Poa annua, sclerochloa kengiana, Beckmannia syzigachne, Polypogon fugax, broadleaf Cardlamine hirsuta, Galium aparine, Lapsana apogonoides, Hemistepta lyrata
  effectiveness of control: moderate
rape; in vivo
  selectivity between rape and weeds: good selectivity
rape; rape / objective crops
  safety to crops: safety toward rape
